Where a name gives a salt, the structure may show the parent alone.
Tests used:
[1] = tested on: serotonin release in the cortex; details: after systemic administration; cited from earlier work
[2] = tested on: serotonin release in the dorsal raphe nucleus; details: rat; together with paroxetine; cited from earlier work

Compound | melting point | serotonin release in the cortex [1] | effect of paroxetine on serotonin release in the dorsal raphe nucleus [2]
CC1(C)c2ccc([N+](=O)[O-])cc2S(=O)(=O)N1CCCN1CCN(c2cccc3ccccc23)CC1 | 203 °C | – | –
CC1(C)c2ccccc2S(=O)(=O)N1CCCN1CCN(c2ccc(Cl)c3ccccc23)CC1 | 151 °C | – | –
COc1ccccc1N1CCN(CC(O)CN2C(C)(C)c3ccccc3S2(=O)=O)CC1 (stereo not drawn) | 160 °C | – | –
CCC1(CC)c2ccccc2S(=O)(=O)N1CCCN1CCN(c2cccc3ccccc23)CC1 | 179 °C | – | –
CC1(C)c2ccccc2S(=O)(=O)N1CCCN1CCN(c2ccc3ccccc3n2)CC1 | 63 °C | – | –
C=C(CN1CCN(c2cccc3ccccc23)CC1)CN1C(C)(C)c2ccccc2S1(=O)=O | 193 °C | – | –
CC1(C)c2ccc(-n3cccc3)cc2S(=O)(=O)N1CCCN1CCN(c2cccc3ccccc23)CC1 (as salt: hydrochloride) | 269 °C | – | –
Cc1cccc(N2CCN(CCN3C(C)(C)c4ccccc4S3(=O)=O)CC2)c1C (as salt: hydrochloride) | 291 °C | – | –
CC1(C)c2ccccc2S(=O)(=O)N1CCN1CCN(c2cccc3c2CCC3)CC1 (as salt: hydrochloride) | 271 °C | – | –
CC1(C)c2ccccc2S(=O)(=O)N1CCCN1CCN(c2ncccn2)CC1 (as salt: hydrochloride) | 263 °C | – | –
COc1ccc(N2CCN(CCN3C(C)(C)c4ccccc4S3(=O)=O)CC2)cc1 (as salt: hydrochloride) | 207 °C | – | –
CC1(C)c2ccccc2S(=O)(=O)N1CCCN1CCN(c2nc(-c3ccccc3)nc3ccccc23)CC1 (as salt: hydrochloride) | 269 °C | – | –
Cc1ccc(C)c(N2CCN(CCCN3C(C)(C)c4ccccc4S3(=O)=O)CC2)c1 (as salt: hydrochloride) | 218 °C | – | –
CC1(C)c2ccccc2S(=O)(=O)N1CCN1CCN(c2ccccc2C#N)CC1 (as salt: hydrochloride) | 228 °C | – | –
CC1(C)c2ccccc2S(=O)(=O)N1CCN1CCN(c2ncnc3ccccc23)CC1 (as salt: hydrochloride) | 178 °C | – | –
CC1(C)c2ccccc2S(=O)(=O)N1CCN1CCN(c2cccc3ccccc23)CC1 (as salt: hydrochloride) | 282 °C | – | –
COc1ccc(NC(=O)c2ccc(-c3ccc(-c4noc(C)n4)cc3C)cc2)cc1N1CCN(C)CC1 [GR 127 935] | – | reduces serotonin release | potentiated
